In patent publication US12012411B2, “Viral replication inhibitors” (Katholieke Universiteit Leuven, priority 2011, dated 2024):

Key:
DENV-2 NGC = experiment: Antiviral activity against DENV-2 NGC in Vero-B cells (viral RNA load by RT-qPCR); assay type: cell-based, Dengue virus; details: Dengue virus, DENV2, Vero B, DENV-2 in Vero-B cells; inhibition of viral RNA replication by 50% (Table 3)
in vitro = details: African green monkey; for CC50 at 4 days: uninfected quiescent Vero-B cells

SMILES	EC50 (DENV-2 NGC) [µM]	CC50 at 4 days (in vitro) [µM]	CC50 (in vitro) [µM]
COc1cccc(NC(C(=O)c2c[nH]c3ccc(S(=O)(=O)N(C)C)cc23)c2ccccc2)c1 (stereo not shown) [CPD-129]	1.09	> 108	–
COc1cccc(NC(C(=O)c2c[nH]c3ccccc23)c2ccc(C#N)c(F)c2)c1 (stereo not shown) [CPD-132]	0.05	12	–
COc1cccc(NC(C(=O)c2c[nH]c3cc(O)ccc23)c2ccccc2)c1 (stereo not shown) [CPD-134]	0.46	49	–
COc1cccc(NC(C(=O)c2c[nH]c3cc(C(=O)O)ccc23)c2ccccc2)c1 (stereo not shown) [CPD-135]	40.7	> 124	–
COCCn1cc(C(=O)C(Nc2cccc(OC)c2)c2ccccc2)c2ccccc21 (stereo not shown) [CPD-136]	0.22	–	> 120
COc1cccc(NC(C(=O)c2c[nH]c3cc(CO)ccc23)c2ccccc2)c1 (stereo not shown) [CPD-140]	2.15	53	–
CNC(=O)c1cccc(NC(C(=O)c2c[nH]c3ccccc23)c2ccccc2)c1 (stereo not shown) [CPD-170]	0.44	26	–
CC(=O)Nc1cccc(NC(C(=O)c2c[nH]c3ccccc23)c2ccccc2)c1 (stereo not shown) [CPD-174]	10.1	61	–
O=C(c1c[nH]c2ccccc12)C(Nc1cccc(CO)c1)c1ccccc1 (stereo not shown) [CPD-179]	5.3	135	–
CC(NC(C(=O)c1c[nH]c2ccccc12)c1ccccc1)c1ccco1 (stereo not shown) [CPD-180]	57	> 145	–
O=C(c1c[nH]c2ccccc12)C(Nc1cccc(N2CCCC2=O)c1)c1ccccc1 (stereo not shown) [CPD-181]	4.22	> 122	–
O=C(c1c[nH]c2ccccc12)C(NC1CCOc2ccccc21)c1ccccc1 (stereo not shown) [CPD-182]	3.01	12	–
CCCN1CCC(NC(C(=O)c2c[nH]c3ccccc23)c2ccccc2)CC1 (stereo not shown) [CPD-184]	22.4	70	–
CCc1cccc2c(C(=O)C(Nc3ccc(NC(=O)CN4CCOCC4)cc3)c3ccccc3)c[nH]c12 (stereo not shown) [CPD-186]	4.35	40	–
NS(=O)(=O)c1cccc(NC(C(=O)c2c[nH]c3ccccc23)c2ccccc2)c1 (stereo not shown) [CPD-187]	3.18	58	–
CN(Cc1ccco1)C(C(=O)c1c[nH]c2ccccc12)c1ccccc1 (stereo not shown) [CPD-189]	0.93	> 145	–
O=C(c1c[nH]c2ccccc12)C(NCC1COc2ccccc2O1)c1ccccc1 (stereo not shown) [CPD-190]	1.71	11	–
O=C(c1c[nH]c2ccccc12)C(NC1CCSc2ccccc21)c1ccccc1 (stereo not shown) [CPD-191]	2.58	13	–

SMILES	EC50 (DENV-2 NGC) [µM]	CC50 at 4 days (in vitro) [µM]	CC50 (in vitro) [µM]
CCOc1ccc(NC(C(=O)c2c[nH]c3ccccc23)c2ccccc2)cc1CO (stereo not shown) [CPD-192]	5.62	50	–
COc1cccc(NC(C(=O)c2c[nH]c3cccnc23)c2ccccc2)c1 (stereo not shown) [CPD-195]	12.7	65	–
COc1cccc(NC(C(=O)c2cnc3ccccn23)c2ccccc2)c1 (stereo not shown) [CPD-196]	62.6	> 139	–
COc1cccc(NC(C(=O)c2cnn3ccccc23)c2ccccc2)c1 (stereo not shown) [CPD-197]	3.3	> 139	–
COc1cccc(NC(C(=O)c2n[nH]c3ccccc23)c2ccccc2)c1 (stereo not shown) [CPD-198]	0.14	16	–
COc1cc(NC(C(=O)c2csc3ccccc23)c2cn3ccccc3n2)ccn1 (stereo not shown) [CPD-199]	24.9	> 120	–
COc1cccc(NC(C(=O)c2c[nH]c3cnccc23)c2ccccc2)c1 (stereo not shown) [CPD-200]	2.24	54	–
COc1cccc(NC(C(=O)c2c[nH]c3ccncc23)c2ccccc2)c1 (stereo not shown) [CPD-201]	12.2	74	–
COc1cccc(NC(C(=O)c2csc3c2CCN(C)C3)c2ccccc2)c1 (stereo not shown) [CPD-202]	8.33	104	–
O=C(c1c[nH]c2ccccc12)C(Nc1ccnc(F)c1)c1ccccc1 (stereo not shown) [CPD-207]	3.83	16	–
COc1cccc(NC(C(=O)c2cn(S(=O)(=O)c3cn(C)cn3)c3ccccc23)c2ccccc2)c1 (stereo not shown) [CPD-209]	1.12	> 100	–
CCS(=O)(=O)n1cc(C(=O)C(Nc2cccc(OC)c2)c2ccccc2)c2ccccc21 (stereo not shown) [CPD-211]	2.83	> 111	–
COc1cccc(NC(C(=O)c2c[nH]c3ccccc23)c2cccnc2OC)c1 (stereo not shown) [CPD-215]	0.16	14	–
COc1cccc(NC(C(=O)c2cn(CCN3CCOCC3)c3ccccc23)c2ccccc2)c1 (stereo not shown) [CPD-216]	0.84	–	> 106
COc1cccc(NC(C(=O)c2cn(S(=O)(=O)C3CCNCC3)c3ccccc23)c2ccccc2)c1 (stereo not shown) [CPD-217]	0.25	11	–
COc1cc(NC(C(=O)c2c[nH]c3ccccc23)c2ccccc2)ccc1C#N (stereo not shown) [CPD-218]	2.39	13	–
COc1cccc(NC(C(=O)c2nn(C)c3c2CNCC3)c2ccccc2)c1 (stereo not shown) [CPD-221]	29.3	80	–
